In test [1] the target is T1, hA2a (Homo sapiens (Human), UniProt P29274). Description: Radioligand binding to hA2a membrane ([3H]-CGS21680). Conditions: [3H]-CGS21680, 90 min at 25° C., read-out: Binding Affinity (IC50 nM) hA2a.
The target of test [2] is T2, hA1 (Homo sapiens (Human), UniProt P30542). Description: Radioligand binding to hA1 membrane ([3H]-DPCPX). Conditions: 50 min at 25° C., read-out: Binding Affinity (IC50 nM) hA1.
Test [3] addresses T3, hA2b (Homo sapiens (Human), UniProt P29275). In words: Radioligand binding to hA2b membrane ([3H]-DPCPX). Conditions: 60 min at 27° C., read-out: Binding Affinity (IC50 nM) hA2b. As to the method:
(§1) Binding affinity and specificities of the compounds against different subtype of human adenosine receptors (hA1, hA2A, hA2B and hA3) were characterized with cell membrane chromatography binding analysis.
The compounds at different concentrations were incubate with hA2b membrane (from PerkinElmer) and [^3H]-DPCPX for 60 min at 27° C., and the binding reactions were stopped by rapid filtration through 0.5% BSA coated […]-96 GF/C plates using cell harvester. The filter plates were then washed three times with ice cold wash buffer, and dried at 37° C. for 120 min. At last, 50 µL of scintillation cocktail was added into each well, and CPM was read by TopCount.
(§2) The empty boxes in the tables below indicate data not available.

Test [4] has as its target T4, hA3 (Homo sapiens (Human), UniProt P0DMS8). In words: Radioligand binding to hA3 membrane (AB-MECA radioligand). Conditions: 60 min at 27° C., read-out: Binding Affinity (IC50 nM) hA3. As to the method: as §1
The compounds at different concentrations were incubate with hA3 membrane (from PerkinElmer) and […] for 60 min at 27° C., the binding reactions were stopped by rapid filtration through 0.50% BSA coated […]-96 GF/C plates using cell harvester. The filter plates were then washed three times with ice cold wash buffer, and dried at 37° C. for 120 min. At last, 50 µL of scintillation cocktail was added into each well, and CPM was read by TopCount.
as §2

For test [5], the target named is T1, hA2a. Description: cAMP inhibition assay in hA2a/CHO cells. It is filed as cell-based. Conditions: adenosine stimulation, read-out: cAMP & FLIPR IC50 (nM) hA2a. In a few lines: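 CHO cells expressing human A2a, human A2b or mouse A2a, 5×10^3 cells/well, pre-incubated with compound 30 min at 37 °C, then stimulated with […] adenosine 30 min at 37 °C. cAMP read after 60 min room-temperature incubation with detection reagent.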

Test [6] has as its target T3, hA2b. Description: cAMP inhibition assay in hA2b/CHO cells. It is filed as cell-based. Conditions: adenosine stimulation, read-out: cAMP & FLIPR IC50 (nM) hA2b. The method, then: (§3) hA2a/CHO, hA2b/CHO and mA2a/CHO (Genscript) were plated at 5×10^3 cells/well into 384-well polystyrene plates at the day of experiment. Compounds were pre-incubated with cells for 30 min at 37° C., 5% CO2. Then […] adenosine was added to the cells and incubated for 30 min at 37° C., 5% CO2. Detection reagent (CISBIO) was added and the plates were incubated for 60 min at room temperature. The signal was captured by Envision.

Another test has as its target mA2a (Mus musculus (Mouse), UniProt Q60613). Description: cAMP inhibition assay in mA2a/CHO cells. It is filed as cell-based. The following applies: adenosine stimulation, read-out: cAMP & FLIPR IC50 (nM) mA2a. As to the method:
as §3

Test [7] has as its target T2, hA1. In words: FLIPR inhibition assay in hADORA1/CHO (hA1 expressing) cells. It is filed as cell-based. Conditions: hADORA1/CHO cells, FLIPR calcium, adenosine stimulation; read-out: cAMP & FLIPR IC50 (nM) hA1. The method in brief: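 CHO cells expressing human A1 were plated at 1×10^4 cells/well the day before, then loaded with FLIPR Calcium 5 dye for 60 min at 37 °C, 5% CO2. Compounds were added at several concentrations for 400 s before stimulation with […] adenosine. The calcium signal was recorded by FLIPR.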

Test [8] addresses T4, hA3. Description: cAMP & FLIPR inhibition, hA3 over-expressing cell line. It is filed as cell-based. From the text:
FLIPR™ and cAMP inhibition activities of exemplary compounds in different adenosine receptor over-expressing cell lines are shown in Table 4 below.

Sequence of mA2a (Q60613 whole entry): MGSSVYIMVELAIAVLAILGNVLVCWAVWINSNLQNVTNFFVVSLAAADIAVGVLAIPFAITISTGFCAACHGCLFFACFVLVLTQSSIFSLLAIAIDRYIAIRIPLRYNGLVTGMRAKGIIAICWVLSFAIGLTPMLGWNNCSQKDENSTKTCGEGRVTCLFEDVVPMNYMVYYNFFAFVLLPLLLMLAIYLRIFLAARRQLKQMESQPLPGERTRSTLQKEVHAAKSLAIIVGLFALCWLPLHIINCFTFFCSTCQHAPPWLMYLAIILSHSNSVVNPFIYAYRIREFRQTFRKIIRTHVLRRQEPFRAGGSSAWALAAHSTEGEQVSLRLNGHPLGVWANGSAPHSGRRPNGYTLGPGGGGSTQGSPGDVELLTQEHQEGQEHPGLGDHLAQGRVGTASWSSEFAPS
T4 sequence (P0DMS8 whole entry): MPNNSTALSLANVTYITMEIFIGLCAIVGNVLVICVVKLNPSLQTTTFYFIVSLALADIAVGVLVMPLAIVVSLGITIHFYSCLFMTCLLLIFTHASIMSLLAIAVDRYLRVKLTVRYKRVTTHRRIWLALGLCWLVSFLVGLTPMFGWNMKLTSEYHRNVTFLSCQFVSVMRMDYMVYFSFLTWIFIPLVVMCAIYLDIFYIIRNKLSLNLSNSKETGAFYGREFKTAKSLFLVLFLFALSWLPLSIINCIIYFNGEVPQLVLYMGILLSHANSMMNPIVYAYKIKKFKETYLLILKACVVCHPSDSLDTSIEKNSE
T3 sequence (P29275 whole entry): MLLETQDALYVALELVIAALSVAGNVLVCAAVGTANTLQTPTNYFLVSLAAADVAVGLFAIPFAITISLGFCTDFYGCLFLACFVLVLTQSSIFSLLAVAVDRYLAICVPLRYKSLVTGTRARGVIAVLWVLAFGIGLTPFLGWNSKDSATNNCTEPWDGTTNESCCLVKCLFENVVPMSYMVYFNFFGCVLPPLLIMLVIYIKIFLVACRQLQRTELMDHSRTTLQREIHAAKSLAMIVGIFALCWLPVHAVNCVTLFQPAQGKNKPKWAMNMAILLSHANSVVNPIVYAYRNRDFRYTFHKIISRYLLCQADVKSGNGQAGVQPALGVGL
T2 sequence (P30542 whole entry): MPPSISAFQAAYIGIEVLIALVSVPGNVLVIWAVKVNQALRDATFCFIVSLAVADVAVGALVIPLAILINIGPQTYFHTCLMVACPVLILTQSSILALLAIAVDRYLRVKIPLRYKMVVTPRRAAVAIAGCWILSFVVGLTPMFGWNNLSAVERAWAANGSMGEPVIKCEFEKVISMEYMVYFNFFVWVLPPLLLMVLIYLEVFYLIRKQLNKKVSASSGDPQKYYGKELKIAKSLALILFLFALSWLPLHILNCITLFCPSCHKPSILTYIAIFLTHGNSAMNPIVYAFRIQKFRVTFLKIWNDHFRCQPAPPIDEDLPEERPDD
T1 sequence (P29274 whole entry): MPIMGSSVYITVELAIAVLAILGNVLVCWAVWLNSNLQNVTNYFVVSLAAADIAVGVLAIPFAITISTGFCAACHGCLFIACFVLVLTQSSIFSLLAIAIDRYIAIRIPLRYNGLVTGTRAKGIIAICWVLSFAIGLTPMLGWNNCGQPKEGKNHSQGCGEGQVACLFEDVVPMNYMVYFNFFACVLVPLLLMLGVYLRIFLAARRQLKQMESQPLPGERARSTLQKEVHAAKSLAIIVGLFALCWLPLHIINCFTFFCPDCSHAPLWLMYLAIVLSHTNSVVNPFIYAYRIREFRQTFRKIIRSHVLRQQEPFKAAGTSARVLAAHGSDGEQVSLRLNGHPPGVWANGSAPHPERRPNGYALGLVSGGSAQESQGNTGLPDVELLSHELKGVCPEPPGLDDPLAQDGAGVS

Consider `Cn1cc(-c2c(-c3ccc(F)cc3)nc(N)n3nc(Cc4ncccc4F)nc23)ccc1=O` [Example 1, 5-(5-amino-7-(4-fluorophenyl)-2-((3-fluoropyridin-2-yl)methyl)-[1,2,4]triazolo[1,5-c]pyrimidin-8-yl)-1-methylpyridin-2(1H)-one], for which the IC50 at hA2a [1] turned out to be 2.3 nM; on hA1 [2], 1.1 nM; on hA2b [3] it was 2.3 nM; on hA3 [4] it was 2870 nM; at hA2a [5] it was 4.7 nM; on hA2b [6] it was 117 nM. The IC50 on mA2a is 10 nM; on hA1 [7], 8.5 nM; on hA3 [8], more than 10000 nM.

With `CN(C)c1cc(-c2c(-c3ccc(F)cc3)nc(N)n3nc(Cc4c(F)cccc4F)nc23)ccn1` [Example 10, 2-(2,6-difluorobenzyl)-8-(2-(dimethylamino)pyridin-4-yl)-7-(4-fluorophenyl)-[l,2,4]triazolo [l,5-c]pyrmidin-5-amine], the IC50 at hA2a [1] amounted to 0.9 nM; on hA1 [2], 2.3 nM; on hA2b [3], 0.1 nM; at hA3 [4], 4770 nM; on hA2a [5] it was 0.2 nM; on hA2b [6], 4.4 nM. The IC50 at mA2a is 0.4 nM; at hA1 [7], 42 nM; against hA3 [8], more than 10000 nM.

With `Cn1cc(-c2c(-c3ccc(F)cc3)nc(N)n3nc(Cc4ncccc4OC(F)F)nc23)ccc1=O` [Example 20, 5-(5-amino-2-[[3-(difluoromethoxy)pyridin-2-yl]methyl]-7-(4-fluorophenyl)-[1,2,4]triazolo[1,5-c]pyrimidin-8-yl)-1-methyl-1,2-dihydropyridin-2-one], the IC50 at hA2a [1] was 2.8 nM; on hA1 [2], 4 nM; on hA2b [3], 8.7 nM; on hA3 [4] it was 1070 nM; on hA2a [5] it was 3.5 nM; on hA2b [6] it was 84 nM. Also, the IC50 is 4.9 nM at mA2a, 34 nM at hA1 [7] and more than 10000 nM on hA3 [8].

For the molecule `CCn1cc(-c2c(-c3ccc(F)cc3)nc(N)n3nc(Cc4ncccc4F)nc23)ccc1=O` [Example 34, 5-(5-amino-7-(4-fluorophenyl)-2-((3-fluoropyridin-2-yl)methyl)-[1,2,4]triazolo[1,5-c]pyrimidin-8-yl)-1-ethylpyridin-2(1H)-one], the IC50 at hA2a [1] stood at 2.8 nM; on hA1 [2] it was 0.8 nM; at hA2b [3], 0.4 nM; on hA3 [4], 10000 nM; at hA2a [5], 2.1 nM; at hA2b [6] it was 58 nM. The results for the IC50 on mA2a and on hA1 [7] were 3.4 nM and 12 nM, respectively.

Regarding `CC(C)n1cc(-c2c(-c3ccc(F)cc3)nc(N)n3nc(Cc4ncccc4F)nc23)ccc1=O` [Example 55, 5-(5-amino-7-(4-fluorophenyl)-2-((3-fluoropyridin-2-yl)methyl)-[1,2,4]triazolo[1,5-c]pyrimidin-8-yl)-1-isopropylpyridin-2(1H)-one], the IC50 amounted to 4 nM on hA2a [1]; 0.1 nM at hA1 [2]; 2.8 nM at hA2b [3]; 7290 nM on hA3 [4]; 0.7 nM at hA2a [5]; 101 nM on hA2b [6]. The IC50 at mA2a was found to be 0.8 nM; on hA1 [7] it was 13 nM.

These data come from patent US10858365B2, “Triazolo-pyrimidine compounds and uses thereof” (Dizal (Jiangsu) Pharmaceutical Co., Ltd., priority 2018, dated 2020).
